{"source": "patent US12398110B2", "about": "“Second generation inhibitors of mitochondrial permeability transition pore with improved plasma stability” (Oregon Health & Science University, priority 2019, dated 2025)", "key": {"mtPTP": {"system": "mtPTP", "test": "Ca2+ retention capacity (CRC) of isolated mouse liver mitochondria", "assay_type": "biochemical", "experimental": "CRC determines the Ca^2+ threshold required for mtPTP activation; inhibitors of mtPTP are expected to increase the Ca^2+ threshold required for mtPTP induction. Extramitochondrial Ca^2+ changes are detected using the membrane-impermeant Ca^2+ indicator, Calcium Green-5N.\nIsolation of mitochondria. C57BL6/N mouse liver mitochondria were prepared from 2 to 6 month old male mice by standard differential centrifugation. Mice fed ad libitum were euthanized with CO2 followed cervical dislocation, their livers were existed and placed in a glass beaker containing ice-cold isolation buffer (IB: 0.25 m sucrose, 10 mm Tris-HCl, 0.1 mm EGTA-Tris, pH 7.4) supplemented with fatty acid free bovine serum albumin. Livers were then cut into small pieces with scissors, rinsed with ice-cold IB, and passed through a pre-chilled Potter homogenizer with Teflon pestle. The homogenate (˜30 mL per liver) was transferred to centrifuge tubes, and unbroken cells and nuclei were removed by centrifugation at 700 g for 10 min at 4° C. The supernatant containing mitochondria and other organelles was transferred to new tubes and centrifuged at 6000 g for 10 min at 4° C. The resulting supernatant was discarded and mitochondrial pellet was carefully suspended in ice-cold IB and spun at 9500 g for 5 min at 4° C. The pellet was suspended in IB to give a protein concentration of ˜60-80 mg/mL and stored on ice. Experiments were started immediately and completed within 5 h. Protein concentration was determined by the Biuret method.\nAssessment of Ca^2+ retention capacity (CRC). CRC of isolated mouse liver mitochondria was assessed as follows: First, 0.1 mL of SAB were dispensed to a 96-well black assay plate in the presence of 2% DMSO (control wells) or varying concentrations of test compounds, in 1:2 serial dilutions. Then, 0.1 mL of 0.5 mg/mL mitochondria in SAB devoid of respiratory substrates, but supplemented with 1 μm Calcium Green-5N were added to all wells of the assay plate. A train of 10 μm CaCl2 pulses was added at 2 min intervals, and fluorescence intensity (ex/em 485/535 nm) was read on Tecan Infinite F200 plate reader."}, "HeLa cells [1]": {"system": "HeLa cells", "test": "Oxygen consumption rate of HeLa cell monolayers (Seahorse XF24)", "assay_type": "cell-based", "conditions": "~2 h treatment", "excerpt": "(§1) A thorough evaluation of toxicity is critical for advancing TR001 to in vivo studies. […] To more thoroughly examine mitochondrial toxicity, we analyzed oxygen consumption rates (OCRs) using the Seahorse XF24 extracellular flux analyzer. This allowed us to assess the effects of TR001 on mitochondrial respiration and ATP synthesis. […] Consequently respiratory control ratios (i.e., the ratios between ADP-stimulated and basal respiration) were not affected across the concentrations tested (FIG. 5B). Complex III inhibitor antimycin A shuts down the electron transport chain at the bc1 complex and was used to account for oxygen leak.\nMeasurement of respiration. Mitochondrial oxygen consumption of isolated mitochondria or HeLa cell monolayer was assessed with the Seahorse Extracellular Flux Analyzer XF24 (Seahorse Bioscience, Billerica, MA, USA). Isolated mouse liver mitochondria: Mitochondrial assay solution contained 220 mm mannitol, 70 mm sucrose, 25 mm MOPS-Tris, 10 mm Pi-Tris, 5 mm MgCl2, 1 mm EGTA-Tris, 0.2% fatty acid free BSA, 5 mm succinate and 2 μm rotenone, pH 7.4. Mitochondria (5 μg, suspended in 50 μL mitochondrial assay solution) were added to each well of an XF24 cell culture microplate, centrifuged at 2000 g for 20 min at 4° C. and then supplemented with 450 μL of mitochondrial assay solution containing 4 mm ADP to initiate the experiments. […]"}, "[2]": {"system": "isolated mouse liver mitochondria", "test": "Oxygen consumption rate of isolated mitochondria (Seahorse XF24)", "assay_type": "biochemical", "excerpt": "as §1\nMeasurement of respiration. Mitochondrial oxygen consumption of isolated mitochondria or HeLa cell monolayer was assessed with the Seahorse Extracellular Flux Analyzer XF24 (Seahorse Bioscience, Billerica, MA, USA). Isolated mouse liver mitochondria: Mitochondrial assay solution contained 220 mm mannitol, 70 mm sucrose, 25 mm MOPS-Tris, 10 mm Pi-Tris, 5 mm MgCl2, 1 mm EGTA-Tris, 0.2% fatty acid free BSA, 5 mm succinate and 2 μm rotenone, pH 7.4. Mitochondria (5 μg, suspended in 50 μL mitochondrial assay solution) were added to each well of an XF24 cell culture microplate, centrifuged at 2000 g for 20 min at 4° C. and then supplemented with 450 μL of mitochondrial assay solution containing 4 mm ADP to initiate the experiments."}, "HeLa cells [3]": {"system": "HeLa cells", "test": "HeLa cell viability assay", "assay_type": "cell-based", "conditions": "up to 50 μm, 24 h treatment", "excerpt": "as §1\nCell viability assay. HeLa cells were seeded at a density of 10^4 per well in 96-well plates and let to adhere for 6 h before treatment with varying concentrations of TR001 or vehicle (1% DMSO. After treatment for 24 h the relative viable cell number was determined with a CellTiter 96 Aqueous One Solution Cell Proliferation Assay Kit (Promega)."}}, "data": [{"smiles": "Cc1ccc(Cl)cc1NC(=O)c1cn(-c2ccc(F)c(O)c2)nn1", "note": "[TR001, N-(5-chloro-2-methylphenyl)-1-(4-fluoro-3-hydroxyphenyl)-1H-1,2,3-triazole-4-carboxamide]", "values": [{"measurement": "CRC effect in combination with CsA", "setting": "mtPTP; TR001 in combination with 2 μm CsA", "value": "additive with CsA"}, {"measurement": "CRC/CRC0 at 1.25 μM", "setting": "mtPTP; compound treated CRC to DMSO treated CRC0 ratio, 1.25 μM, average ± SEM, n = 3-25", "value": "6.8 ± 0.4"}, {"measurement": "maximal efficacy as defined by CRC/CRC0 ratio", "setting": "mtPTP; mouse liver mitochondria", "value": "~10"}, {"measurement": "mitochondrial dysfunction (OCR) in intact cells", "setting": "HeLa cells [1]", "value": "did not cause mitochondrial dysfunction"}, {"measurement": "rates of oxygen consumption (ADP stimulation, oligomycin, FCCP)", "setting": "[2]", "value": "no effect"}, {"measurement": "respiratory control ratios", "setting": "[2]; across the concentrations tested", "value": "not affected"}, {"measurement": "HeLa cell viability", "setting": "HeLa cells [3]", "value": "did not exhibit any adverse effects"}]}]}
